# Laboratory results: publication PMC3813382 (The Journal of General Physiology, 2013)
# Substitutions are numbered along the chain they refer to.
# Tests used:
# C236A Slo2.1 channels = molecular target: T1, C236A Slo2.1 channels (Homo sapiens, UniProt Q6UVM3, C236A); test: Activation of ISlo2.1 by NFA, two-electrode voltage clamp in oocytes; type: cell-based; settings: 1 mM NFA, 0 mV
# T1 sequence (Q6UVM3 1-1135 C236A): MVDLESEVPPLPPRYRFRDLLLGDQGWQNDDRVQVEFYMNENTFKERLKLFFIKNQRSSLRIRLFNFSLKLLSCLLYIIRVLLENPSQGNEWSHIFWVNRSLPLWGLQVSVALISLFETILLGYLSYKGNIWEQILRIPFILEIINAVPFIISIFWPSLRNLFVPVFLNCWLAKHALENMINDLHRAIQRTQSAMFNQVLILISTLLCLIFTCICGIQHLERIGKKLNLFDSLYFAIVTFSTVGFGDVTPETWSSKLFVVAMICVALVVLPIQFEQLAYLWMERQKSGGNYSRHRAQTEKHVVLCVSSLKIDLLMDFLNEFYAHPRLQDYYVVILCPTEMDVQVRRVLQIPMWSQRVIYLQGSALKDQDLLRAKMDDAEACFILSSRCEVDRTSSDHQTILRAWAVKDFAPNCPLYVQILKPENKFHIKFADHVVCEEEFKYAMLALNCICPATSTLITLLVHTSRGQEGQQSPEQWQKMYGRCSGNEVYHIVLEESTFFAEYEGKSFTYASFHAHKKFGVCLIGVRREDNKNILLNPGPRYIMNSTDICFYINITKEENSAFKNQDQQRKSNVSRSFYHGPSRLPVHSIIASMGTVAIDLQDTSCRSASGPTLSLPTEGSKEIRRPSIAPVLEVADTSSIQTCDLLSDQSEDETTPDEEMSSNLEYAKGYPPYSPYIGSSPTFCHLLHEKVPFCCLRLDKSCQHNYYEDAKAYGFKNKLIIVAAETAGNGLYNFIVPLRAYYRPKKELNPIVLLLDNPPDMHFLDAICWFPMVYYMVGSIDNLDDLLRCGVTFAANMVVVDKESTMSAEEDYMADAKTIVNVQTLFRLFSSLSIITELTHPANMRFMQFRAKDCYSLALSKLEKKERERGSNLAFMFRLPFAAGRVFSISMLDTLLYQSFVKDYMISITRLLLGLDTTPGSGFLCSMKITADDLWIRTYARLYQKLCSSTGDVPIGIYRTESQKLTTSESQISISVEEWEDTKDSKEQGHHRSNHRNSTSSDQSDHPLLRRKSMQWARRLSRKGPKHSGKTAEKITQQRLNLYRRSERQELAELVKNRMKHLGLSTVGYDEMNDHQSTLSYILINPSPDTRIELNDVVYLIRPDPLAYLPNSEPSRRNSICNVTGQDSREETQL
# F240C Slo2.1 channels = molecular target: T2, F240C Slo2.1 channels (Homo sapiens, UniProt Q6UVM3, F240C); test: as above; type: cell-based
# T2 sequence (Q6UVM3 1-1135 F240C): T1 sequence (Q6UVM3 1-1135 C236A) with A236C, F240C
structure (smiles),measurement,setting,value
"O=C(O)c1cccnc1Nc1cccc(C(F)(F)F)c1 [NFA, niflumic acid]",response of C236A channels to NFA,C236A Slo2.1 channels,insensitive to 1 mM NFA
same,activation of F240C currents by NFA,F240C Slo2.1 channels; KCM211 solution ([K^+]e 2 mM),not further activated by NFA
same,activation of F240C currents by NFA,"F240C Slo2.1 channels; [K^+]e elevated to 104 mM, 1 mM NFA",further activated by 1 mM NFA
